Measured values: ChEMBL document CHEMBL3046486, “Insights into the structural requirement of 6-nitroquinolone-3-carboxylic acids as antimycobacterial agent: chemometric approaches” (2012)

Each compound was assayed on Mycobacterium tuberculosis (assay: Antimycobacterial activity against Mycobacterium tuberculosis by NCCLS agar dilution method).
Type: functional

| Structure (SMILES) | -logMIC |
| --- | --- |
| CC(C)(C)n1cc(C(=O)O)c(=O)c2cc([N+](=O)[O-])c(N3CCN(C(c4ccccc4)c4ccc(Cl)cc4)CC3)cc21 (stereo unspecified) | 5.264 |
| CC(C)(C)NC(=O)C1c2ccccc2CCN1c1cc2c(cc1[N+](=O)[O-])c(=O)c(C(=O)O)cn2-c1ccc(F)cc1 (stereo unspecified) | 5.252 |
| O=C(O)c1cn(-c2ccc(F)cc2)c2cc(N3CCN(C(c4ccccc4)c4ccc(Cl)cc4)CC3)c([N+](=O)[O-])cc2c1=O (stereo unspecified) | 4.992 |
| Cc1onc(-c2c(F)cccc2F)c1C(=O)N1CCN(c2cc3c(cc2[N+](=O)[O-])c(=O)c(C(=O)O)cn3-c2ccc(F)cc2)CC1 | 5.306 |
| O=C(O)c1cn(-c2ccc(F)cc2)c2cc(N3CCN(C(=O)C4COc5ccccc5O4)CC3)c([N+](=O)[O-])cc2c1=O (stereo unspecified) | 5.565 |
| O=C(O)c1cn(-c2ccc(F)cc2)c2cc(N3CCC(N4CCCCC4)CC3)c([N+](=O)[O-])cc2c1=O | 5.199 |
| O=C(O)c1cn(-c2ccc(F)cc2)c2cc(N3CCSCC3)c([N+](=O)[O-])cc2c1=O | 4.837 |
| CC(C)(C)n1cc(C(=O)O)c(=O)c2cc([N+](=O)[O-])c(N3CCSCC3)cc21 | 5.097 |
| CC(C)(C)n1cc(C(=O)O)c(=O)c2cc([N+](=O)[O-])c(N3CCn4cc(C(=O)O)nc4C3)cc21 | 5.163 |
| CC1CN(c2cc3c(cc2[N+](=O)[O-])c(=O)c(C(=O)O)cn3C2CC2)CC(C)O1 (stereo unspecified) | 5.697 |
| O=C(O)c1cn(-c2ccc(F)cc2)c2cc(N3CCN(Cc4ccc5c(c4)OCO5)CC3)c([N+](=O)[O-])cc2c1=O | 5.545 |
| O=C(O)c1cn(C2CC2)c2cc(N3CCN(C(c4ccccc4)c4ccc(Cl)cc4)CC3)c([N+](=O)[O-])cc2c1=O (stereo unspecified) | 5.253 |
| O=C(O)c1cn(-c2ccc(F)cc2)c2cc(N3CCN(C(=O)c4ccco4)CC3)c([N+](=O)[O-])cc2c1=O | 5.209 |
| CC1CN(c2cc3c(cc2[N+](=O)[O-])c(=O)c(C(=O)O)cn3-c2ccc(F)cc2)CC(C)O1 (stereo unspecified) | 5.452 |
| O=C(O)c1cn(C2CC2)c2cc(N3CCC(O)(c4ccc(Cl)cc4)CC3)c([N+](=O)[O-])cc2c1=O | 6.092 |
| CCN(CC)C(=O)C1CCCN(c2cc3c(cc2[N+](=O)[O-])c(=O)c(C(=O)O)cn3-c2ccc(F)cc2)C1 (stereo unspecified) | 5.213 |

| Structure (SMILES) | -logMIC |
| --- | --- |
| O=C(O)c1cn(C2CC2)c2cc(N3CCC(N4CCCCC4)CC3)c([N+](=O)[O-])cc2c1=O | 6.367 |
| CC(C)(C)n1cc(C(=O)O)c(=O)c2cc([N+](=O)[O-])c(N3CCC(n4c(=O)[nH]c5cc(Cl)ccc54)CC3)cc21 | 5.237 |
| CC(C)(C)n1cc(C(=O)O)c(=O)c2cc([N+](=O)[O-])c(N3CCC4(CC3)OCCO4)cc21 | 5.128 |
| CC(C)(C)n1cc(C(=O)O)c(=O)c2cc([N+](=O)[O-])c(N3CCN(C(=O)c4ccco4)CC3)cc21 | 5.175 |
| CCN(CC)C(=O)C1CCCN(c2cc3c(cc2[N+](=O)[O-])c(=O)c(C(=O)O)cn3C(C)(C)C)C1 (stereo unspecified) | 5.179 |
| O=C(O)c1cn(-c2ccc(F)cc2)c2cc(N3CCC4(CC3)OCCO4)c([N+](=O)[O-])cc2c1=O | 5.176 |
| O=C(O)c1cn(C2CC2)c2cc(N3CCN(C(=O)C4COc5ccccc5O4)CC3)c([N+](=O)[O-])cc2c1=O (stereo unspecified) | 5.524 |
| COc1ccc(CC2C3=C(CCCC3)CCN2c2cc3c(cc2[N+](=O)[O-])c(=O)c(C(=O)O)cn3-c2ccc(F)cc2)cc1 (stereo unspecified) | 5.271 |
| O=C(O)c1cn(-c2ccc(F)cc2)c2cc(N3CCC(n4c(=O)[nH]c5cc(Cl)ccc54)CC3)c([N+](=O)[O-])cc2c1=O | 5.266 |
| CC(C)(C)n1cc(C(=O)O)c(=O)c2cc([N+](=O)[O-])c(N3CCN(Cc4ccc5c(c4)OCO5)CC3)cc21 | 5.513 |
| O=C(O)c1cn2c(n1)CN(c1cc3c(cc1[N+](=O)[O-])c(=O)c(C(=O)O)cn3-c1ccc(F)cc1)CC2 | 4.92 |
| CC(C)(C)NC(=O)C1c2ccccc2CCN1c1cc2c(cc1[N+](=O)[O-])c(=O)c(C(=O)O)cn2C1CC1 (stereo unspecified) | 5.81 |
| CN1CCN(c2cc3c(cc2[N+](=O)[O-])c(=O)c(C(=O)O)cn3C(C)(C)C)CC1c1ccccc1 (stereo unspecified) | 4.793 |
| O=C(O)c1cn(C2CC2)c2cc(N3CCSCC3)c([N+](=O)[O-])cc2c1=O | 5.38 |
| CCN(CC)C(=O)C1CCCN(c2cc3c(cc2[N+](=O)[O-])c(=O)c(C(=O)O)cn3C2CC2)C1 (stereo unspecified) | 5.466 |
